Measurements as given in patent US20230107983A1, “COMPOUND ISOLATED FROM TORILIDIS FRUCTUS, AND ANTICANCER PHARMACEUTICAL COMPOSITION CONTAINING SAME AS ACTIVE INGREDIENT” (PHARMA-GENE CO., LTD., priority 2020, published 2023).

Legend:
[1] = Change in mouse weight, HCT116 xenograft, intraperitoneal administration; type: in vivo, nude mouse; set-up: Change in mouse weight: unit not given here; conditions: intraperitoneal once a day
Protocol: (§1) The Tr-9 was dissolved in sterile PBS and 1 mM Tr-9 200 µℓ was intraperitoneally administered per mouse once a day, and all animals were weighed immediately before the start of drug (Tr-9) administration and 9 times in total from day 2 to day 21 after cancer cell transplantation (Table 7).
(§2) In Table 7 above, data values are the mean ± standard deviation. After measuring the body weight, the animals were killed using CO2 gas, and the tumor was separated and the size was measured in 3 directions using a vernier caliper for each animal. Then, the change in tumor size was expressed as a calculated value of (length × width × height)/2 (Table 8).

[2] = Change in mouse weight, A549 xenograft, intraperitoneal administration; type: in vivo, nude mouse; set-up: Change in mouse weight: unit not given here; conditions: once a day
Protocol: The Tr-9 was dissolved in sterile PBS and 1 mM Tr-9 200 µℓ was intraperitoneally administered per mouse once a day, and all animals were weighed immediately before the start of drug (Tr-9) administration and 10 times in total from day 2 to day 23 after cancer cell transplantation (Table 4).
In Table 4 above, data values are the mean ± standard deviation. After measuring the body weight, the animals were killed using CO2 gas, and the tumor was separated and the size was measured in 3 directions using a vernier caliper for each animal. Then, the change in tumor size was expressed as a calculated value of (length × width × height)/2 (Table 4).

[3] = test system: human colorectal cancer cells (HCT116); test: Nude mouse xenograft model of human colorectal cancer cells, intraperitoneal administration; type: in vivo
Protocol: Anticancer activity against colorectal cancer according to the intraperitoneal administration of Tr-9 was confirmed through a nude mouse xenograft model of human colorectal cancer cells (HCT116). In Example 5, Example 4 was repeated except for using colorectal cancer cells.
Specific pathogen-free (SPF) nude mice of the BALB/C strain were used as the animal model. Animals were bred in the animal room of Daedeok Campus of Hannam University maintained at a temperature of 23±3° C., relative humidity of 55±15%, ventilation frequency of 10-20 times/hr, lighting time of 12 hours(lights on at 8 am and off at 8 pm) and illuminance of 150 to 300 Lux.
For cancer cell transplantation, all cells were collected and counted on the last day of culture, and the concentration of human colorectal cancer cell line HCT116 was adjusted to 5×10^6 cells/ml using PBS. The adjusted cell culture solution was injected subcutaneously into the auxiliary region between the right scapula and chest wall at 0.2 ml (1×10^6 cells/mouse) per mouse.
as §1, §2
Tumor size increase is (Δt)═ Vt—Vo, wherein Vt is the value of measuring the tumor size by date, and Vo is the value of measuring the initial tumor size.

[4] = intraperitoneal once a day, Day 21

## C/C=C(/C)C(=O)O[C@@H]1C[C@H](C)[C@H]2CC(=O)C(C)=C2C[C@@H]1C(C)(C)OC(C)=O [Torilin, torilin, reference compound]
[1]; 0 Day after drug treatment
  Change in mouse weight: 100.0 ±0.0
[1]; 2 Days after drug treatment
  Change in mouse weight: 100.5 ±1.8
[1]; 5 Days after drug treatment
  Change in mouse weight: 101.4 ±2.7
[1]; 7 Days after drug treatment
  Change in mouse weight: 98.4 ±2.7
[1]; 9 Days after drug treatment
  Change in mouse weight: 98.4 ±2.8
[1]; 11 Days after drug treatment
  Change in mouse weight: 98.8 ±3.2
[1]; 14 Days after drug treatment
  Change in mouse weight: 98.2 ±4.3
[1]; 16 Days after drug treatment
  Change in mouse weight: 98.6 ±4.9
[1]; 18 Days after drug treatment
  Change in mouse weight: 100.0 ±5.3
[1]; 21 Days after drug treatment
  Change in mouse weight: 101.8 ±7.3
[1]; day 2 to day 21
  difference in body weight according to the administration of the drugs: almost no difference in body weight
[2]; 0 Day after drug treatment
  Change in mouse weight: 100.0 ±0.0
[2]; 2 Days after drug treatment
  Change in mouse weight: 98.2 ±1.5
[2]; 5 Days after drug treatment
  Change in mouse weight: 98.2 ±1.4
[2]; 7 Days after drug treatment
  Change in mouse weight: 97.6 ±1.0
[2]; 9 Days after drug treatment
  Change in mouse weight: 102.7 ±2.7
[2]; 12 Days after drug treatment
  Change in mouse weight: 101.0 ±3.1
[2]; 14 Days after drug treatment
  Change in mouse weight: 101.2 ±2.6
[2]; 16 Days after drug treatment
  Change in mouse weight: 102.3 ±3.8
[2]; 19 Days after drug treatment
  Change in mouse weight: 103.4 ±5.2
[2]; 21 Days after drug treatment
  Change in mouse weight: 102.9 ±4.1
[2]; 23 Days after drug treatment
  Change in mouse weight: 105.0 ±4.6
[2]; day 2 to day 23
  difference in body weight according to the administration of the drugs: almost no difference in body weight
[3]; intraperitoneal once a day, Day 0, table title: Change in tumor size
  Tumor size increase (Vt−V0): 0.0±0.0
[3]; intraperitoneal once a day, Day 2, table title: Change in tumor size
  Tumor size increase (Vt−V0): 54.7±16.2
[3]; intraperitoneal once a day, Day 2, vs control
  Inhibition rate (tumor size increase): 17.4%
[3]; intraperitoneal once a day, Day 5, table title: Change in tumor size
  Tumor size increase (Vt−V0): 151.4±33.3
[3]; intraperitoneal once a day, Day 5, vs control
  Inhibition rate (tumor size increase): 16.3%
[3]; intraperitoneal once a day, Day 7, table title: Change in tumor size
  Tumor size increase (Vt−V0): 362.7±59.4
[3]; intraperitoneal once a day, Day 7, vs control
  Inhibition rate (tumor size increase): 18.9%
[3]; intraperitoneal once a day, Day 9, table title: Change in tumor size
  Tumor size increase (Vt−V0): 565.9±142.4
[3]; intraperitoneal once a day, Day 9, vs control
  Inhibition rate (tumor size increase): 19.1%
[3]; intraperitoneal once a day, Day 11, table title: Change in tumor size
  Tumor size increase (Vt−V0): 816.9±248.1
[3]; intraperitoneal once a day, Day 11, vs control
  Inhibition rate (tumor size increase): 20.6%
[3]; intraperitoneal once a day, Day 14, table title: Change in tumor size
  Tumor size increase (Vt−V0): 1086.2±458.4
[3]; intraperitoneal once a day, Day 14, vs control
  Inhibition rate (tumor size increase): 21.2%
[3]; intraperitoneal once a day, Day 16, table title: Change in tumor size
  Tumor size increase (Vt−V0): 1319.9±614.0
[3]; intraperitoneal once a day, Day 16, vs control
  Inhibition rate (tumor size increase): 26.5%
[3]; intraperitoneal once a day, Day 18, table title: Change in tumor size
  Tumor size increase (Vt−V0): 1555.6±640.5
[3]; intraperitoneal once a day, Day 18, vs control
  Inhibition rate (tumor size increase): 24.0%
[3]; [4]
  Tumor weight at Day 21: 2.85 ± 0.834 g
  Tumor weight reduction rate compared to control group: 25.9%
[3]; intraperitoneal once a day, Day 21, table title: Change in tumor size
  Tumor size increase (Vt−V0): 1973.3±821.1
[3]; intraperitoneal once a day, Day 21, vs control
  Inhibition rate (tumor size increase): 25.2%
[3]; intraperitoneal, after day 14
  tumor size compared to the control group: statistically significantly smaller
